According to ChEMBL document CHEMBL1147043, “Comparative metabolism of radiolabeled muraglitazar in animals and humans by quantitative and qualitative metabolite profiling” (Drug Metab Dispos, 2007):

Legend:
[1] = system: Rattus norvegicus; experiment: Biodistribution in orally dosed Sprague-Dawley rat urine assessed as 8,12-dihydroxy muraglitazar level by LC/MS analysis; format: ADME, organism-based; details: in vivo, po
[2] = system: Plasma; experiment: Biodistribution in orally dosed human plasma assessed as 12-dihydroxy muraglitazar level after 12 hrs by LC/MS analysis; format: ADME, organism-based; details: in vivo, po
[3] = Drug concentration in Sprague-Dawley rat urine at 11 mg/kg, po after 12 hrs; format: ADME, organism-based; design: dose 11 mg/kg, route oral; details: read-out: Drug uptake
[4] = Fecal excretion of compound in orally dosed human within 96 hrs; format: ADME, organism-based; details: faeces, po, read-out: Activity
[5] = system: Rattus norvegicus; experiment: Biodistribution in orally dosed Sprague-Dawley rat urine assessed as muraglitazar glucuronide level by LC/MS analysis; format: ADME, organism-based; details: in vivo, po
[6] = Drug concentration in bile duct-cannulated cynomolgus monkey urine assessed as recovery of radioactive dose at 5 mg/kg, po after 48 hrs; format: ADME, organism-based, Macaca fascicularis; design: dose 5 mg/kg, route oral; details: in vivo
[7] = system: Hepatocyte; experiment: Metabolic stability in human hepatocytes assessed as muraglitazar glucuronide level by LC/MS analysis relative to control; format: ADME, cell-based
[8] = system: Rattus norvegicus; experiment: Biodistribution in orally dosed Sprague-Dawley rat urine assessed as O-dealkyl-O-demethyl muraglitazar level by LC/MS analysis; format: ADME, organism-based; details: in vivo, po
[9] = Biodistribution in orally dosed human urine assessed as 17-hydroxy muraglitazar level by LC/MS analysis; format: ADME, organism-based; details: in vivo, po
[10] = system: Rattus norvegicus; experiment: Biodistribution in orally dosed Sprague-Dawley rat feces assessed as 12-hydroxy-O-demethyl muraglitazar level by LC/MS analysis; format: ADME, organism-based; details: in vivo, po
[11] = Biodistribution in orally dosed cynomolgus monkey urine assessed as O-demethyl muraglitazar level by LC/MS analysis; format: ADME, organism-based, Macaca fascicularis; details: in vivo, po
[12] = system: Plasma; experiment: Biodistribution in orally dosed Sprague-Dawley rat plasma assessed as 8-hydroxy-O-demethyl muraglitazar level after 12 hrs by LC/MS analysis; format: ADME, organism-based; details: in vivo, po
[13] = system: Plasma; experiment: Biodistribution in orally dosed Sprague-Dawley rat plasma assessed as O-demethyl muraglitazar level after 1 hr by LC/MS analysis; format: ADME, organism-based; details: in vivo, po
[14] = Metabolic stability in CD1 mouse hepatocytes assessed as O-dealkyl-O-demethyl muraglitazar level by LC/MS analysis relative to control; format: ADME, cell-based, Hepatocyte
[15] = Half life in human at 10 mg, po after 72 hrs; format: ADME, organism-based; details: in vivo
[16] = Fecal excretion rate in orally dosed Beagle dog within 48 hrs; format: ADME, organism-based, Canis lupus familiaris; details: faeces, po, read-out: Activity
[17] = system: Hepatocyte; experiment: Metabolic stability in Sprague-Dawley rat hepatocytes assessed as 8-hydroxy-O-demethyl muraglitazar level by LC/MS analysis relative to control; format: ADME, cell-based
[18] = system: Plasma; experiment: Biodistribution in orally dosed cynomolgus monkey plasma assessed as O-demethyl muraglitazar level after 4 hrs by LC/MS analysis; format: ADME, organism-based, Macaca fascicularis; details: in vivo, po
[19] = system: Plasma; experiment: Biodistribution in orally dosed cynomolgus monkey plasma assessed as 12,17-dihydroxy muraglitazar level after 4 hrs by LC/MS analysis; format: ADME, organism-based, Macaca fascicularis; details: in vivo, po
[20] = Fecal excretion rate in orally dosed Sprague-Dawley rat within 24 hrs; format: ADME, organism-based; details: faeces, po, read-out: Activity
[21] = system: Plasma; experiment: Biodistribution in orally dosed Sprague-Dawley rat plasma assessed as muraglitazar 12-carboxylic acid level after 12 hrs by LC/MS analysis; format: ADME, organism-based; details: in vivo, po
[22] = Biodistribution in orally dosed cynomolgus monkey feces assessed as 17-hydroxy muraglitazar level by LC/MS analysis; format: ADME, organism-based, Macaca fascicularis; details: in vivo, po
[23] = Metabolic stability in cynomolgus monkey hepatocytes assessed as radioactivity recovaries at 25.6 ug/mL after 4 hrs; format: ADME, cell-based, Macaca fascicularis, Hepatocyte
[24] = Metabolic stability in cynomolgus monkey hepatocytes assessed as di-oxygenated muraglitazar level by LC/MS analysis relative to control; format: ADME, cell-based, Macaca fascicularis, Hepatocyte
[25] = system: Plasma; experiment: Biodistribution in orally dosed cynomolgus monkey plasma assessed as 12-hydroxy-O-demethyl muraglitazar level after 12 hrs by LC/MS analysis; format: ADME, organism-based, Macaca fascicularis; details: in vivo, po
[26] = Metabolic stability in CD1 mouse hepatocytes assessed as muraglitazar 12-carboxylic acid level by LC/MS analysis relative to control; format: ADME, cell-based, Hepatocyte
[27] = system: Plasma; experiment: Biodistribution in orally dosed cynomolgus monkey plasma assessed as muraglitazar glucuronide level after 12 hrs by LC/MS analysis; format: ADME, organism-based, Macaca fascicularis; details: in vivo, po
[28] = Biodistribution in orally dosed human urine assessed as muraglitazar glucuronide level by LC/MS analysis; format: ADME, organism-based; details: in vivo, po
[29] = system: Plasma; experiment: Biodistribution in orally dosed Sprague-Dawley rat plasma assessed as 12-dihydroxy muraglitazar level after 12 hrs by LC/MS analysis; format: ADME, organism-based; details: in vivo, po
[30] = Metabolic stability in CD1 mouse hepatocytes assessed as radioactivity recovaries at 25.6 ug/mL after 4 hrs; format: ADME, cell-based, Hepatocyte
[31] = system: Hepatocyte; experiment: Metabolic stability in human hepatocytes assessed as 17-hydroxy-O-demethyl muraglitazar level by LC/MS analysis relative to control; format: ADME, cell-based
[32] = system: Plasma; experiment: Biodistribution in orally dosed Sprague-Dawley rat plasma assessed as O-demethyl muraglitazar level after 4 hrs by LC/MS analysis; format: ADME, organism-based; details: in vivo, po
[33] = system: Hepatocyte; experiment: Metabolic stability in Sprague-Dawley rat hepatocytes assessed as O-Dealkyl muraglitazar level by LC/MS analysis relative to control; format: ADME, cell-based
[34] = system: Rattus norvegicus; experiment: Biodistribution in orally dosed Sprague-Dawley rat urine assessed as O-dealkyl muraglitazar level by LC/MS analysis; format: ADME, organism-based; details: in vivo, po
[35] = Metabolic stability in CD1 mouse hepatocytes assessed as di-oxygenated muraglitazar level by LC/MS analysis relative to control; format: ADME, cell-based, Hepatocyte
[36] = Drug concentration in bile duct-cannulated cynomolgus monkey bile assessed as recovery of radioactive dose at 5 mg/kg, po after 48 hrs; format: ADME, organism-based, Macaca fascicularis; design: dose 5 mg/kg, route oral; details: in vivo
[37] = Drug concentration in bile duct-cannulated cynomolgus monkey bile at 5 mg/kg, po after 48 hrs; format: ADME, organism-based, Macaca fascicularis; design: dose 5 mg/kg, route oral; details: in vivo
[38] = system: Hepatocyte; experiment: Metabolic stability in Sprague-Dawley rat hepatocytes assessed as O-demethyl muraglitazar level by LC/MS analysis relative to control; format: ADME, cell-based
[39] = system: Plasma; experiment: Biodistribution in orally dosed human plasma assessed as muraglitazar glucuronide level after 12 hrs by LC/MS analysis; format: ADME, organism-based; details: in vivo, po
[40] = Tmax in human at 10 mg, po after 72 hrs; format: ADME, organism-based; details: in vivo
[41] = Biodistribution in orally dosed human urine assessed as O-dealkyl muraglitazar level by LC/MS analysis; format: ADME, organism-based; details: in vivo, po
[42] = Biodistribution in orally dosed cynomolgus monkey feces assessed as 12-hydroxy muraglitazar level by LC/MS analysis; format: ADME, organism-based, Macaca fascicularis; details: in vivo, po
[43] = system: Hepatocyte; experiment: Metabolic stability in Sprague-Dawley rat hepatocytes assessed as O-dealkyl-O-demethyl muraglitazar level by LC/MS analysis relative to control; format: ADME, cell-based
[44] = system: Plasma; experiment: Biodistribution in orally dosed human plasma assessed as muraglitazar glucuronide level after 4 hrs by LC/MS analysis; format: ADME, organism-based; details: in vivo, po
[45] = system: Plasma; experiment: Biodistribution in orally dosed human plasma assessed as muraglitazar 12-carboxylic acid level after 4 hrs by LC/MS analysis; format: ADME, organism-based; details: in vivo, po
[46] = system: Plasma; experiment: Biodistribution in orally dosed cynomolgus monkey plasma assessed as O-demethyl muraglitazar glucuronide level after 4 hrs by LC/MS analysis; format: ADME, organism-based, Macaca fascicularis; details: in vivo, po
[47] = system: Homo sapiens; experiment: AUC (0 to T) in human at 10 mg, po after 72 hrs; format: ADME, organism-based, Plasma; design: dose 10 mg, time < 72 hr, route oral; details: in vivo
[48] = system: Plasma; experiment: Biodistribution in orally dosed human plasma assessed as 17-dihydroxy muraglitazar level after 4 hrs by LC/MS analysis; format: ADME, organism-based; details: in vivo, po
[49] = system: Plasma; experiment: Biodistribution in orally dosed cynomolgus monkey plasma assessed as 12,17-dihydroxy muraglitazar level after 1 hr by LC/MS analysis; format: ADME, organism-based, Macaca fascicularis; details: in vivo, po
[50] = Biodistribution in orally dosed cynomolgus monkey feces assessed as 8-hydroxy-O-demethyl muraglitazar level by LC/MS analysis; format: ADME, organism-based, Macaca fascicularis; details: in vivo, po
[51] = system: Plasma; experiment: Biodistribution in orally dosed human plasma assessed as muraglitazar glucuronide level after 1 hr by LC/MS analysis; format: ADME, organism-based; details: in vivo, po
[52] = system: Hepatocyte; experiment: Metabolic stability in Sprague-Dawley rat hepatocytes assessed as 9-hydroxy-O-demethyl muraglitazar level by LC/MS analysis relative to control; format: ADME, cell-based
[53] = Biodistribution in orally dosed Beagle dog feces assessed as 12-hydroxy-O-demethyl muraglitazar level by LC/MS analysis; format: ADME, organism-based, Canis lupus familiaris; details: in vivo, po

COc1ccc(OC(=O)N(CC(=O)O)Cc2ccc(OCCc3nc(-c4ccccc4)oc3C)cc2)cc1 [MURAGLITAZAR]
Drug uptake [1]: < 0.01%
Drug uptake [2]: 1%
dose excreted at 12 h [3]: 0.51%
dose excreted at 96 h [4]: 80%
Drug uptake [5]: < 0.01%
Drug uptake [6]: 5%
Drug uptake [7]: 1.1%
Drug uptake [8]: 0.21%
Drug uptake [9]: 0.07%
Drug uptake [10]: 2.63%
Drug uptake [11]: 0.08%
Drug uptake [12]: 0.05%
Drug uptake [13]: 2.3%
Drug uptake [14]: 5.7%
half-life [15]: 1190 min
dose excreted at 48 h [16]: 95%
Drug uptake [17]: < 0.2%
Drug uptake [18]: 0.3%
Drug uptake [19]: 1.5%
dose excreted at 24 h [20]: 85%
Drug uptake [21]: < 0.05%
Drug uptake [22]: 25.73%
Stability [23]: 99.2%
Drug uptake [24]: 1.3%
Drug uptake [25]: 2.7%
Drug uptake [26]: 0.8%
Drug uptake [27]: 0.1%
Drug uptake [28]: 1%
Drug uptake [29]: 0.2%
Stability [30]: 95.6%
Drug uptake [31]: 1.6%
Drug uptake [32]: 2.1%
Drug uptake [33]: 12%
Drug uptake [34]: 0.22%
Drug uptake [35]: 1.4%
Drug uptake [36]: 35.7%
Drug uptake [37]: 0.007 mgequiv/ml
Drug uptake [38]: 2.2%
Drug uptake [39]: 2.5%
Tmax [40]: 1 h
Drug uptake [41]: 0.06%
Drug uptake [42]: 7.24%
Drug uptake [43]: 0.3%
Drug uptake [44]: 4.2%
Drug uptake [45]: 0.2%
Drug uptake [46]: 0.2%
AUC [47]: 9 ugequiv.h/ml
Drug uptake [48]: 0.3%
Drug uptake [49]: 1%
Drug uptake [50]: 1.29%
Drug uptake [51]: 2.5%
Drug uptake [52]: < 0.2%
Drug uptake [53]: 0.38%
